Data reported in article PMC12377202, “Design, synthesis, and cytotoxic evaluation of quinazoline-based derivatives as VEGER-2 inhibitors: comparative study against EGFR kinase activity, induction of apoptosis, and molecular docking study” (RSC Advances, 2025).
Values after ≈ are worked out from the molar mass of the structure shown. Where two headings read alike, the source gives them in different places.

Legend:
caspase-3 = assay: Caspase-3 expression level in HepG-2 cells; format: cell-based, human; conditions: for Caspase-3 ± SE: HepG-2, at IC50 concentrations, control 0.460
Experimental: (§1) All synthesized compounds were tested at their cytotoxic concentrations in HepG-2 cells for analysis of gene expression levels of apoptotic markers caspase-3, caspase-9, TNF-α, and IL-6 proteins, and only two active compounds were tested for BAX and Bcl-2 proteins.
(§2) through Flow cytometric analysis.
(§3) Pellets were collected again and incubated with
(§4) Total RNA from vehicle-treated
(§5) (Thermo Scientific, USA).
(§6) All experiments were performed in […]

TNF-alpha = TNF-alpha level in HepG-2 cells; format: cell-based, human; conditions: control 43.48
Experimental: as §1, §2, §3, §4, §5, §6

EGFR = EGFR (Homo sapiens, UniProt P00533); assay: EGFR kinase inhibition assay (ELISA kit)
EGFR, sequence (P00533 25-1210): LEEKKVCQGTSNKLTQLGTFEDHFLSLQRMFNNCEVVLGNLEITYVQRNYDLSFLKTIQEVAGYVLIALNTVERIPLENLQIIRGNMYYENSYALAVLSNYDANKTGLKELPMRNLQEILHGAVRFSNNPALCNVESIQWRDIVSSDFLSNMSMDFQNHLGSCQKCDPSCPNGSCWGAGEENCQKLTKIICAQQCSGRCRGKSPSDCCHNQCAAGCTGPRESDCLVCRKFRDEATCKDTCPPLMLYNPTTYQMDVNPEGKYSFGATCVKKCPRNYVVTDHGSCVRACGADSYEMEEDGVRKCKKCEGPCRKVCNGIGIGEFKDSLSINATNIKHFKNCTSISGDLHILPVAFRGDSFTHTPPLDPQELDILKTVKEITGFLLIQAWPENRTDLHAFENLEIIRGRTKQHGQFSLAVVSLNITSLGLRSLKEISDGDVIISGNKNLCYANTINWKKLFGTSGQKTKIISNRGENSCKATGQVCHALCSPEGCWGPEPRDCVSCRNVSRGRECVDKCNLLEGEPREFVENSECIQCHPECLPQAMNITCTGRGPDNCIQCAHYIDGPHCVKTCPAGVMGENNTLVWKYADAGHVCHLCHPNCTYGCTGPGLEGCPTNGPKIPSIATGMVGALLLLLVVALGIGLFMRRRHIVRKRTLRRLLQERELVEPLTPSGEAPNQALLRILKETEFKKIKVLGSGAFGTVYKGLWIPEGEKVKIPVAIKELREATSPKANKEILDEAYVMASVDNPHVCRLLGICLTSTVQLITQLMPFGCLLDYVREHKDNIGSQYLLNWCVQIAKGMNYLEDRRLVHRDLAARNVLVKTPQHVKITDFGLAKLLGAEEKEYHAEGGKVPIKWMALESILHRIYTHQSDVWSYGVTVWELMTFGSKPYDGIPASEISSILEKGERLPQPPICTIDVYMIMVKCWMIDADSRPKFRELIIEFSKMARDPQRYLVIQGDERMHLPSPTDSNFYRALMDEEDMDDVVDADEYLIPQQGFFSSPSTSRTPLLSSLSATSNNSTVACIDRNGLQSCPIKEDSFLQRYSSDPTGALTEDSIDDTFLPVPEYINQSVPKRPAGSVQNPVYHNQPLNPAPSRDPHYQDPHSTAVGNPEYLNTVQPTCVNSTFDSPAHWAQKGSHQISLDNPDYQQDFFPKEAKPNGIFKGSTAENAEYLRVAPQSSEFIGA

MCF-7 [1] = assay: MTT anti-proliferative assay, MCF-7; format: cell-based, human; conditions: Homo sapiens, MCF7
K-562 = assay: MTT anti-proliferative assay, K-562; format: cell-based, human; conditions: Homo sapiens, K562
VEGFR-2 = VEGFR-2 (Homo sapiens, UniProt P35968); assay: In vitro VEGFR-2 inhibitory assay (ELISA kit); conditions: VEGFR-2 kinase
VEGFR-2, sequence (P35968 20-1356): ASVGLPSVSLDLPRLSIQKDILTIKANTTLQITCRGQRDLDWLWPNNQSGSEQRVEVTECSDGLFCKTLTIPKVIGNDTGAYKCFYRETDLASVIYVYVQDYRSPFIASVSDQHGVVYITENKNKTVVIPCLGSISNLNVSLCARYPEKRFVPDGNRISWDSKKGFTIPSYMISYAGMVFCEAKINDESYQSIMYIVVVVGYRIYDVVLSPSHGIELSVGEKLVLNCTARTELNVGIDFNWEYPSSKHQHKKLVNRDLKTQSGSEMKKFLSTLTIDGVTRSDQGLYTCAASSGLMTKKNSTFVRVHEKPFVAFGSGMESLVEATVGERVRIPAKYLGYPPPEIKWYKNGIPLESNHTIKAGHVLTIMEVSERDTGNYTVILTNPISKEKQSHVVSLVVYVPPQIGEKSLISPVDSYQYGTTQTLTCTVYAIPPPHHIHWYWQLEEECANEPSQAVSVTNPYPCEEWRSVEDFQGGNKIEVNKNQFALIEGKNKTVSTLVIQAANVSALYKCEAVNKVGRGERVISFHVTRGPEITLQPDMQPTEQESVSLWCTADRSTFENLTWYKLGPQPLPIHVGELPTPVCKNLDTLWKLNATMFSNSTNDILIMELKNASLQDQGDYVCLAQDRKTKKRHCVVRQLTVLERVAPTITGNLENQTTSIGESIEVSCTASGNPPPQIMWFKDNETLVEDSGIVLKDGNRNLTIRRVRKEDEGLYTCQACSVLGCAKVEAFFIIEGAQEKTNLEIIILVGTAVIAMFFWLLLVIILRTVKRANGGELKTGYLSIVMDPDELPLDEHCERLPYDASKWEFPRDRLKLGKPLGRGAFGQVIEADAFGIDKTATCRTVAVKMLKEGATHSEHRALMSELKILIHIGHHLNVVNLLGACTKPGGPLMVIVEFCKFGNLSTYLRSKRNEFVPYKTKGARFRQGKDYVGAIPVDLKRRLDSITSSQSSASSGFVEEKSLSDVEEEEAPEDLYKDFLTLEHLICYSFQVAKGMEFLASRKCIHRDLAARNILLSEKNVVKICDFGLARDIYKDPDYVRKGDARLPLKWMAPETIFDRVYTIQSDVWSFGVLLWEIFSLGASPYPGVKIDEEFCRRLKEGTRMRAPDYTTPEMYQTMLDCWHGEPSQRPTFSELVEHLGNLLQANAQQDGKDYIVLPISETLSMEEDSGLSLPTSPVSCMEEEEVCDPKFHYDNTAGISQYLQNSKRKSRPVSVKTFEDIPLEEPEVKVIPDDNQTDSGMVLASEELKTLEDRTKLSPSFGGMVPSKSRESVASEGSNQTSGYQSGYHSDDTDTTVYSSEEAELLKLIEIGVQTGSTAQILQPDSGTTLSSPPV

HepG-2 = assay: MTT anti-proliferative assay, HepG-2; format: cell-based, human; conditions: Homo sapiens, HepG2
IL-6R = IL-6R level in HepG-2 cells; format: cell-based, human; conditions: control 44.10
Experimental: as §1, §2, §3, §4, §5, §6

Bcl-2 = Bcl-2 gene expression in HepG-2 cells; format: cell-based, human
Experimental: as §1, §2, §3, §4, §5, §6

BAX = BAX gene expression in HepG-2 cells; format: cell-based, human
Experimental: as §1, §2, §3, §4, §5, §6

BAX/Bcl-2 = BAX/Bcl-2 ratio in HepG-2 cells; format: cell-based, human
Experimental: as §1, §2, §3, §4, §5, §6

caspase-9 = assay: Caspase-9 expression level in HepG-2 cells; format: cell-based, human; conditions: for Caspase-9 ± SE: HepG-2, at IC50 concentrations, control 11.01
Experimental: as §1, §2, §3, §4, §5, §6

HepG2 = conditions: cited from earlier work
MCF-7 [2] = conditions: cited from earlier work
PC3 = conditions: cited from earlier work
VEGFR-2 kinase = conditions: cited from earlier work
WI-38 = conditions: read-out: IC50 normal WI-38 cells; cited from earlier work

O=C(Cn1cnc2cc([N+](=O)[O-])ccc2c1=O)Nc1ccccc1 [9a, 2-(7-Nitro-4-oxoquinazolin-3(4H)-yl)-N-phenylacetamide]
Caspase-3 ± SE (caspase-3): 0.98 ± 0.04 ng/mL
Caspase-3 ± SE (caspase-3; listed as N1): 0.98 ng/mL
caspase-3 expression level, fold increase (caspase-3; HepG-2, vs control cells): 2.1 fold
TNF-alpha ±SE (TNF-alpha; HepG-2, at IC50 concentrations): 23.6 ± 1.35 ng/L
TNF-alpha ±SE (TNF-alpha; raw data, HepG2): 9.13 ng/L
Activity % (EGFR; HepG2): 16.297%
Inhibition % (EGFR; HepG2): 83.703%
Activity % (EGFR; K-562): 21.954%
Inhibition % (EGFR; K-562): 78.046%
Activity % (EGFR; MCF7): 19.563%
Inhibition % (EGFR; MCF7): 80.437%
viability at 0.195 µmol (MCF-7 [1]; MCF-7, 0.195 umol): 56.6%
cytotoxicity at 0.195 µmol (MCF-7 [1]; MCF-7, 0.195 umol, read-out: Toxicity %): 43.4%
viability at 0.391 µmol (MCF-7 [1]; MCF-7, 0.391 umol): 41.8%
cytotoxicity at 0.391 µmol (MCF-7 [1]; MCF-7, 0.391 umol, read-out: Toxicity %): 58.2%
viability at 0.781 µmol (MCF-7 [1]; MCF-7, 0.781 umol): 27.6%
cytotoxicity at 0.781 µmol (MCF-7 [1]; MCF-7, 0.781 umol, read-out: Toxicity %): 72.4%
viability at 1.563 µmol (MCF-7 [1]; MCF-7, 1.563 umol): 13.5%
cytotoxicity at 1.563 µmol (MCF-7 [1]; MCF-7, 1.563 umol, read-out: Toxicity %): 86.5%
viability at 3.125 µmol (MCF-7 [1]; MCF-7, 3.125 umol): 9.94%
cytotoxicity at 3.125 µmol (MCF-7 [1]; MCF-7, 3.125 umol, read-out: Toxicity %): 90.1%
viability at 6.25 µmol (MCF-7 [1]; MCF-7, 6.25 umol): 8.66%
cytotoxicity at 6.25 µmol (MCF-7 [1]; MCF-7, 6.25 umol, read-out: Toxicity %): 91.3%
viability at 12.5 µmol (MCF-7 [1]; MCF-7, 12.5 umol): 6.99%
cytotoxicity at 12.5 µmol (MCF-7 [1]; MCF-7, 12.5 umol, read-out: Toxicity %): 93%
viability at 25 µmol (MCF-7 [1]; MCF-7, 25 umol): 6.42%
cytotoxicity at 25 µmol (MCF-7 [1]; MCF-7, 25 umol, read-out: Toxicity %): 93.6%
IC50 (MCF-7 [1]; MTT, MCF-7, read-out: Cytotoxicity against cancer cells IC50 MCF-7): 282.4 ± 1.4 nM
viability at 0.195 µmol (K-562; K-562, 0.195 umol): 66.6%
cytotoxicity at 0.195 µmol (K-562; K-562, 0.195 umol, read-out: Toxicity %): 33.4%
viability at 0.391 µmol (K-562; K-562, 0.391 umol): 49.6%
cytotoxicity at 0.391 µmol (K-562; K-562, 0.391 umol, read-out: Toxicity %): 50.4%
viability at 0.781 µmol (K-562; K-562, 0.781 umol): 30.8%
cytotoxicity at 0.781 µmol (K-562; K-562, 0.781 umol, read-out: Toxicity %): 69.2%
viability at 1.563 µmol (K-562; K-562, 1.563 umol): 16.5%
cytotoxicity at 1.563 µmol (K-562; K-562, 1.563 umol, read-out: Toxicity %): 83.5%
viability at 3.125 µmol (K-562; K-562, 3.125 umol): 8.91%
cytotoxicity at 3.125 µmol (K-562; K-562, 3.125 umol, read-out: Toxicity %): 91.1%
viability at 6.25 µmol (K-562; K-562, 6.25 umol): 8.78%
cytotoxicity at 6.25 µmol (K-562; K-562, 6.25 umol, read-out: Toxicity %): 91.2%
viability at 12.5 µmol (K-562; K-562, 12.5 umol): 7.76%
cytotoxicity at 12.5 µmol (K-562; K-562, 12.5 umol, read-out: Toxicity %): 92.2%
viability at 25 µmol (K-562; K-562, 25 umol): 7.02%
cytotoxicity at 25 µmol (K-562; K-562, 25 umol, read-out: Toxicity %): 93%
IC50 (K-562; MTT, K-562, read-out: Cytotoxicity against cancer cells IC50 K-562): 385.8 ± 3.2 nM
Activity % (VEGFR-2; HepG2): 14.760%
Inhibition % (VEGFR-2; HepG2): 85.240%
Activity % (VEGFR-2; K-562): 35.983%
Inhibition % (VEGFR-2; K-562): 64.017%
Activity % (VEGFR-2; MCF7): 19.964%
Inhibition % (VEGFR-2; MCF7): 80.036%
viability at 0.195 µg/mL (HepG-2; HepG-2, 0.195 ug/ml): 45.9%
cytotoxicity at 0.195 µg/mL (HepG-2; HepG-2, 0.195 ug/ml, read-out: Toxicity %): 54.1%
viability at 0.391 µg/mL (HepG-2; HepG-2, 0.391 ug/ml): 29.7%
cytotoxicity at 0.391 µg/mL (HepG-2; HepG-2, 0.391 ug/ml, read-out: Toxicity %): 70.3%
viability at 0.781 µg/mL (HepG-2; HepG-2, 0.781 ug/ml): 21%
cytotoxicity at 0.781 µg/mL (HepG-2; HepG-2, 0.781 ug/ml, read-out: Toxicity %): 79%
viability at 1.563 µg/mL (HepG-2; HepG-2, 1.563 ug/ml): 12.7%
cytotoxicity at 1.563 µg/mL (HepG-2; HepG-2, 1.563 ug/ml, read-out: Toxicity %): 87.3%
viability at 3.125 µg/mL (HepG-2; HepG-2, 3.125 ug/ml): 9.56%
cytotoxicity at 3.125 µg/mL (HepG-2; HepG-2, 3.125 ug/ml, read-out: Toxicity %): 90.4%
viability at 6.25 µg/mL (HepG-2; HepG-2, 6.25 ug/ml): 6.96%
cytotoxicity at 6.25 µg/mL (HepG-2; HepG-2, 6.25 ug/ml, read-out: Toxicity %): 93%
viability at 12.5 µg/mL (HepG-2; HepG-2, 12.5 ug/ml): 6.04%
cytotoxicity at 12.5 µg/mL (HepG-2; HepG-2, 12.5 ug/ml, read-out: Toxicity %): 94%
viability at 25 µg/mL (HepG-2; HepG-2, 25 ug/ml): 5.71%
cytotoxicity at 25 µg/mL (HepG-2; HepG-2, 25 ug/ml, read-out: Toxicity %): 94.3%
IC50 (HepG-2; MTT, HepG-2, read-out: Cytotoxicity against cancer cells IC50 HepG-2): 187.1 ± 1.7 nM
IL-6R ± SE (IL-6R; HepG-2, at IC50 concentrations): 26.0 ± 0.97 ng/L
IL-6 ±SE (IL-6R; raw data, HepG2): 14.73 ng/L
fold reduction in Bcl-2 expression level (Bcl-2; HepG-2, vs control): 2.8 fold
Bcl-2 expression level (Bcl-2; HepG-2, control 3.49): 1.23 fold change
Gene expression (fold change) Bcl-2 (Bcl-2; HepG-2, control 3.4983): 1.2368 ± 0.30 fold change
fold increase in BAX expression level (BAX; HepG-2, vs control): 6 fold
BAX expression level (BAX; HepG-2, control 0.44): 2.65 fold change
Gene expression (fold change) BAX (BAX; HepG-2, control 0.4448): 2.6533 ± 0.40 fold change
Gene expression (fold change) BAX/Bcl-2 ratio (BAX/Bcl-2; control 0.1260): 2.1544 ± 0.96
BAX/Bcl-2 ratio (BAX/Bcl-2; control […]): 2.15
Caspase-9 ± SE (caspase-9): 30.57 ± 3.39 ng/L
Caspase-9 ± SE (caspase-9; listed as N1): 30.57 ng/L
caspase-9 expression level, fold increase (caspase-9; HepG-2, vs control cells): 2.77 fold

O=C(Nc1ccc(Oc2nc(Cl)nc3ccccc23)cc1)c1cccnc1 [VIII]
IC50 HepG2 (HepG2): 24.10 µg/mL (≈ 64 µM)
IC50 MCF-7 (MCF-7 [2]): 33.40 µg/mL (≈ 88.6 µM)
IC50 PC3 (PC3): 40.90 µg/mL (≈ 109 µM)
IC50 (VEGFR-2 kinase; read-out: VEGFR-2 inhibition IC50): 60 nM

O=C(CSc1nc2ccc([N+](=O)[O-])cc2c(=O)n1-c1ccccc1)NNC(=O)c1ccccc1 [VII]
IC50 HepG2 (HepG2): 17.23 µg/mL (≈ 36.2 µM)
IC50 MCF-7 (MCF-7 [2]): 30.85 µg/mL (≈ 64.9 µM)
IC50 PC3 (PC3): 26.10 µg/mL (≈ 54.9 µM)
IC50 (VEGFR-2 kinase; read-out: IC50 against VEGFR-2 kinase): 4600 ± 60 nM
IC50 (WI-38): 146000 nM
